Results on ten compounds are retold here after PubChem BioAssay (NCI).

Test systems include SN12C renal; UACC-62 melanoma; SNB-75 CNS; 786-0 renal; HOP-92 NSCLC; OVCAR-5 ovarian; TK-10 renal; OVCAR-4 ovarian; MALME-3M melanoma; RPMI-8226 leukemia.
Holding throughout (experiment): NCI-60 cell line screen, 48 h

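Five concentrations, 48 hours, 96-well plates. GI50: concentration for 50% inhibition of growth. TGI: concentration producing complete growth inhibition.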 Some results are limits rather than exact numbers.

With `N#C/C(=C1\NN=C(N)C(c2ccc(Cl)cc2)=C1O)c1ccc(Cl)cc1`, the TGI with SN12C renal, in the assay with UACC-62 melanoma, in the assay with SNB-75 CNS, in the assay with 786-0 renal, in the assay on HOP-92 NSCLC and with OVCAR-5 ovarian was above 100 µM throughout. The TGI with TK-10 renal, in the assay with OVCAR-4 ovarian, in the assay on MALME-3M melanoma and with RPMI-8226 leukemia was above 100 µM throughout.
In the case of `COc1ccc(C(=O)/C=C/c2c(C(F)(F)F)nc3sccn23)cc1OC`, the GI50 was 2.98 µM in the assay with SN12C renal; 4.85 µM in the assay on UACC-62 melanoma; 6.87 µM in the assay on SNB-75 CNS; 5.67 µM in the assay on 786-0 renal; 5.87 µM in the assay on HOP-92 NSCLC; 4.18 µM in the assay with OVCAR-5 ovarian. In addition, the GI50 in the assay on TK-10 renal is 8.76 µM; in the assay on OVCAR-4 ovarian it was 4.08 µM; with MALME-3M melanoma, 5.92 µM; with RPMI-8226 leukemia it was 1.62 µM. Also, the TGI with SN12C renal was above 100 µM; in the assay with UACC-62 melanoma, above 100 µM; in the assay on SNB-75 CNS, above 100 µM; with 786-0 renal it was above 100 µM; in the assay with HOP-92 NSCLC, 59.6 µM; in the assay on OVCAR-5 ovarian it was 39.1 µM. Moreover, the TGI with TK-10 renal, in the assay with OVCAR-4 ovarian, in the assay on MALME-3M melanoma and with RPMI-8226 leukemia was above 100 µM throughout.
Regarding `COc1ccc(C2=NN(C(=O)COc3ccc(Cl)cc3)C(O)(c3ccc(Cl)cc3)C2)cc1` (stereo not drawn), the TGI in the assay on SN12C renal, with UACC-62 melanoma, with SNB-75 CNS, in the assay with 786-0 renal, in the assay with HOP-92 NSCLC and with OVCAR-5 ovarian was above 100 µM in each case. Further, the TGI in the assay with TK-10 renal, in the assay with OVCAR-4 ovarian, with MALME-3M melanoma and in the assay on RPMI-8226 leukemia was above 100 µM throughout.
As to `c1cc(CCN2CCCCC2)ccn1`, the TGI in the assay with SN12C renal, with UACC-62 melanoma, in the assay with SNB-75 CNS, in the assay on 786-0 renal, in the assay on HOP-92 NSCLC and in the assay on OVCAR-5 ovarian was above 100 µM in each case. For the same compound, the TGI with TK-10 renal, with OVCAR-4 ovarian, in the assay on MALME-3M melanoma and in the assay on RPMI-8226 leukemia was above 100 µM each time.
In the case of `C=CCNCCCN1C(=O)c2ccc3c4c(ccc(c24)C1=O)C(=O)N(CCCNCC=C)C3=O`, the GI50 is 0.399 µM with SN12C renal; 0.684 µM in the assay on UACC-62 melanoma; 0.999 µM in the assay on SNB-75 CNS; 0.831 µM in the assay on 786-0 renal; 1.56 µM in the assay on HOP-92 NSCLC; 0.596 µM in the assay on OVCAR-5 ovarian. Moreover, the GI50 is 0.551 µM in the assay on TK-10 renal, 0.143 µM in the assay on OVCAR-4 ovarian, 0.258 µM in the assay with MALME-3M melanoma and 0.385 µM in the assay on RPMI-8226 leukemia. For the same compound, the TGI worked out at 1.78 µM with SN12C renal; 1.76 µM in the assay with UACC-62 melanoma; 2.23 µM in the assay on SNB-75 CNS; 4.7 µM in the assay on 786-0 renal; 7.83 µM in the assay on HOP-92 NSCLC; 4.94 µM in the assay on OVCAR-5 ovarian. Also, the TGI worked out at 6.14 µM in the assay on TK-10 renal, 0.307 µM with OVCAR-4 ovarian, 0.617 µM in the assay on MALME-3M melanoma and 3.55 µM in the assay with RPMI-8226 leukemia.
`O=c1c(Sc2c(O)c3ccccc3c3ccccc3c2=O)c(O)c2ccccc2c2ccccc12`: the TGI in the assay with SN12C renal, in the assay on UACC-62 melanoma, with SNB-75 CNS, with 786-0 renal, in the assay with HOP-92 NSCLC and in the assay on OVCAR-5 ovarian was above 100 µM in each case. In addition, the TGI in the assay on TK-10 renal, in the assay with OVCAR-4 ovarian, with MALME-3M melanoma and in the assay with RPMI-8226 leukemia was above 100 µM throughout.
Turning to `CC(CN1CCN(C)CC1)CN1c2ccccc2Sc2ccc(C(F)(F)F)cc21` (stereo not drawn), the GI50 was 4.07 µM with SN12C renal; 2.09 µM in the assay with UACC-62 melanoma; 2.21 µM in the assay on SNB-75 CNS; 1.66 µM with 786-0 renal; 1.25 µM with HOP-92 NSCLC; 1.53 µM in the assay on OVCAR-5 ovarian. For the same compound, the GI50 in the assay with TK-10 renal was 1.85 µM; in the assay on OVCAR-4 ovarian it was 2.16 µM; with MALME-3M melanoma it was 1.72 µM; with RPMI-8226 leukemia it was 2.43 µM. Also, the TGI in the assay on SN12C renal came out at 14.5 µM; in the assay on UACC-62 melanoma it was 4.18 µM; in the assay with SNB-75 CNS, 7.85 µM; with 786-0 renal it was 3.12 µM; with HOP-92 NSCLC, 4.38 µM; in the assay with OVCAR-5 ovarian, 3.13 µM. Also, the TGI in the assay with TK-10 renal was determined as 3.3 µM; with OVCAR-4 ovarian, 4.4 µM; in the assay on MALME-3M melanoma it was 3.72 µM; in the assay with RPMI-8226 leukemia, 5.49 µM.
With `COc1ccn2c(C(C)=O)cc(C(=O)c3ccc4c(c3)Sc3ccccc3N4)c2c1`, the GI50 in the assay on SN12C renal was 0.33 µM; in the assay with UACC-62 melanoma, 0.0894 µM; in the assay on SNB-75 CNS it was 0.0714 µM; with 786-0 renal it was 0.145 µM; with OVCAR-5 ovarian, 0.229 µM; in the assay on TK-10 renal, 0.34 µM. The GI50 is above 27.8 µM in the assay on MALME-3M melanoma and 0.141 µM in the assay on RPMI-8226 leukemia. Moreover, the TGI in the assay with SN12C renal was above 100 µM; in the assay with UACC-62 melanoma, above 100 µM; with SNB-75 CNS, above 100 µM; with 786-0 renal, 55.1 µM; in the assay on HOP-92 NSCLC, above 100 µM; with OVCAR-5 ovarian, above 100 µM. For the same compound, the TGI in the assay on TK-10 renal, in the assay with OVCAR-4 ovarian, with MALME-3M melanoma and with RPMI-8226 leukemia was above 100 µM each time.
Take `C=C1CC2(C[C@@H](c3ccccc3)O[C@@H](c3ccccc3)C2)OC1=O` (stereo partly drawn): the TGI with SN12C renal was 9.62 µM; in the assay on UACC-62 melanoma, 7.7 µM; with SNB-75 CNS, 14.3 µM; in the assay on 786-0 renal, 5.63 µM; in the assay on HOP-92 NSCLC it was 9.81 µM; in the assay with OVCAR-5 ovarian it was 26.9 µM. Besides, the TGI in the assay on TK-10 renal came out at 3.89 µM; with OVCAR-4 ovarian, 13.5 µM; with MALME-3M melanoma, 4.28 µM; in the assay on RPMI-8226 leukemia it was 2.57 µM.
On to `O=Cc1cn(Cc2cccc(Cl)c2)c2ccccc12`, for which the GI50 in the assay with SN12C renal is 10.7 µM; in the assay with UACC-62 melanoma, 0.533 µM; in the assay with SNB-75 CNS it was 8.99 µM; with 786-0 renal, 8.95 µM; in the assay with HOP-92 NSCLC, 6.19 µM; in the assay on OVCAR-5 ovarian, 0.0263 µM. Also, the GI50 is 0.136 µM with TK-10 renal, 2.88 µM with OVCAR-4 ovarian, 13.5 µM in the assay on MALME-3M melanoma and 4.76 µM in the assay on RPMI-8226 leukemia. The TGI in the assay on SN12C renal was 23.5 µM; in the assay on UACC-62 melanoma it was 6.45 µM; in the assay with SNB-75 CNS, 25.1 µM; in the assay with 786-0 renal, 24.4 µM; in the assay on HOP-92 NSCLC, 20.8 µM; in the assay with OVCAR-5 ovarian, 0.504 µM. The TGI in the assay with TK-10 renal was determined as 1.27 µM; with OVCAR-4 ovarian it was 18.3 µM; with MALME-3M melanoma, 33.8 µM; with RPMI-8226 leukemia, 25.2 µM.
